# Assay results reported in patent US9593363B2, “Methods and models for assessing anti-aging benefits of agents” (The Procter & Gamble Company, priority 2012, dated 2017).
# What was measured:
# Assay type in all cases: cell-based
# epidermal gene panel = assay: ex vivo human skin tissue culture, PCR fold change of epidermal gene panel vs untreated control; details: 5 day time course, 33° C.; for relative fold change of epidermal gene panel (rank order): 70% relative humidity (FIG. 5A); for regulation of AQP3 / regulation of KRT10 and FLG: 70% relative humidity, tRA media applied, retinol and retinol propionate topically applied, N=6 (FIG. 5A)
# Description: Referring to FIG. 5A, a bar graph illustrates the fold change (compared to an untreated control) for the epidermal gene panel of FIG. 3 following media dosing with trans-retinoic acid (tRA), retinol, or retinol propionate (RP) over a 5 day time course. […] The doses were applied over a 5 day time course during which tRA was media applied while retinol and retinol propionate were topically applied to the ex-vivo tissue samples (N=6 per material) incubated at 33° C. and 70% relative humidity. At the end of 5 days, two 4 mm punch biopsies were removed from each of the tissue samples for RNA isolation followed by PCR analysis.
# The fold-increase/decrease in expression, versus an untreated control, was determined for the epidermal gene panel set forth in FIG. 3 for ex vivo tissue from a single donor over a 7 day time course incubated at 37° C. at a relative humidity of 55%. The test agents were applied topically.
# [1] = test system: retinoid metabolism gene panel; assay: ex vivo human skin tissue culture, PCR fold change of retinoid gene panel; details: for regulation of CYP26A1, ALDH1A2, RDH10, RARRES1 and LRAT: by Day 7 compared to Day 5, single donor, tRA media, retinol propionate topical (FIG. 6C); for regulation of CRABP2, RARG and CEBPA / regulation of Cyp26B1: day 7, 37° C., tRA media applied, retinol propionate topically applied (FIG. 6C)
# Description: FIGS. 6A, 6B, and 6C provide heat maps illustrating the fold change for the gene panel of FIG. 3 over a 7 day time course following media dosing with the tRA and retinol propionate. The cells in FIGS. 6A, 6B, and 6C are cross-hatched in the same way as the cells in FIG. 4 (i.e., see the legend provided in FIG. 4). The tRA was media applied and the retinol propionate was topically applied to the ex-vivo tissue samples (N=6 per material), which were incubated at 37° C. and 50% relative humidity. At the end of 48 hours, 5 days and 7 days, two 4 mm punch biopsies were removed from each of the tissue samples for RNA isolation followed by PCR analysis. […] These genes are all important in retinoic acid-mediated regulation of human skin growth and differentiation.
# Referring again to FIGS. 6A, 6B, and 6C, the fold change data from a single donor over a 7 day time course is shown for media application of tRA and topical application of retinol propionate.
# (§1) Skin preparation involved preparation of media in advance of the arrival of skin (3× media including 500 ml DMEM plus 15 ml of antibiotic and antimycotics; the 3× referred to 3-fold levels of antibiotics/antimycotics used for the initial hour of incubation; 1× Media: 500 ml DMEM plus 5 ml of antibiotic and antimycotics). The skin arrived with the dermis (fat) side down on sterile DMEM soaked gauze in a sterile culture dish. The culture dish was taped shut and in a biohazard zip-lock baggie on an ice pack in a secondary container.
# (§2) On arrival, the skin was removed from the bag and soaked in 3×DMEM media and stored at 4° C. for 1 hour. After 1 hour, the skin was removed from the 3×DMEM and rinsed with sterile 1×PBS. The skin was placed in a clean culture dish containing gauze soaked with 1×DMEM. The sample was put in culture the same day as arrival; though the sample may be stored overnight at 4° C. if desired.
# (§3) In preparation for culture, the following were performed on the skin tissue. On a cutting mat, the skin tissue was positioned such that the epidermis was down and the fat was exposed. The fat was removed with a disposable scalpel by carefully grasping one corner of the skin with sterile serrated forceps and scraping the fat away with the blade held at a 45 degree angle to the skin. After the fat was removed, the surgical edges were cut off with a scalpel using a scraper as a straight edge guide and to hold the skin in place. Using the scraper as a guide, the skin was cut into 1.25 cm wide strips using a ruler (such as the one on optionally provided on the cutting mat) to measure the width. The strip was rinsed in a 100 mm culture dish containing 1×PBS. The strips were cut into 1.25 cm squares and placed in a 100 mm culture dish onto 1×DMEM soaked gauze until they were put into culture 30 minutes later (with time points of 15 minutes, 30 minutes, 45 minutes, or an hour being used in various non-limiting examples).
# (§4) Culturing involved putting 2.5 ml of media or treatment into each well of a 6-well tissue plate, adding one Millicell® brand culture insert to each well, and putting 100 μl of 1×DMEM on the center of each insert membrane. The skin sample squares were selected randomly and placed into each of the inserts (one skin sample per insert), on top of the media on the membrane. The plates were stored at 33° C. (though an additional non-limiting example would be 37° C. depending on the experiment endpoint). As a control, baseline tissue measurements were collected from excess waste (cryogenics were used for snap freezing). Baseline biopsy collection involved from each tissue piece; one 4 mm punch for MTT; one 4 mm punch (snap frozen in OCT) for fresh histology; One 4 mm punch was fixed in 10% formalin for paraffin embedding and two 4 mm punches (snap frozen in liquid nitrogen) for PCR.
# Culture and treatment of the model comprised replicates of n=6 (though replicates of additional quantities may be used such as n=5).
# dermal gene panel = assay: ex vivo human skin tissue culture, PCR fold change of dermal gene panel vs untreated control
# Description: The culturing temperature can also affect the pattern and magnitude of the gene regulation in ex vivo tissue samples. Referring to FIGS. 9A and 9B, heat maps illustrate the fold changes for nine dermal genes for five different donor tissue samples incubated at 33° C. for 7 days and 50% relative humidity and five different donor tissue samples incubated at 37° C. for 7 days at 50% relative humidity. The tissue samples were treated with a media supplied dose of 20 ng/ml of TGFβ-1. […]
# Referring to FIG. 18, an olive oil extract, an artichoke leaf extract, and a blend of these extracts were evaluated according to methods described herein. The cells in the table of FIG. 18 are cross-hatched in the same way as the cells in the table of FIG. 4 (i.e., see the legend provided in FIG. 4). The fold-increase/decrease in expression, versus an untreated control, was determined for the dermal gene panel set forth in FIG. 3 for ex vivo tissue from a single donor over a 7 day time course. The skin samples were incubated at a temperature of 37° C. and a relative humidity of 55%. The test agents were applied topically to the skin samples. […] This is another example of identifying actives that may synergistically provide anti-aging benefit.
# as §1, §2, §3
# as §4, with “Baseline biopsy collection involved from each tissue piece; one 4 mm punch for MTT; one 4 mm punch (snap frozen in OCT) for fresh histology; One 4 mm punch was fixed in 10% formalin for paraffin embedding and two 4 mm punches (snap frozen in liquid nitrogen) for PCR.” left out
# TGFβ-2 and TGFβ-3 = assay: ex vivo human skin tissue culture, PCR fold change of TGFβ-2 and TGFβ-3; details: media dosing, 33° C., 55% relative humidity, 4 and 7 days, N=6 (FIG. 4)
# Description: FIG. 4 illustrates a heat map of the fold change of some of the genes from FIG. 3 following media dosing of ex vivo tissue samples (N=6 per material) incubated at 33° C. and 55% relative humidity with four materials over a 7 day time course. Cross-hatching is provided in some of the cells of the table in FIG. 4 to indicate statistically significant up-regulation (p value≦0.05 and p value≦0.1) and statistically significant down regulation p value≦0.05 and p value≦0.1). In addition to TGFβ-1, three exogenous materials believed to provide one or more in vivo, anti-aging skin benefits were tested. The three exogenous materials tested were a vitamin B3 compound (i.e., niacinamide), a peptide (i.e., PAL-KT brand peptide (palmitoyl-lysine-threonine)), and an olive oil extract (i.e., OLIVEM 460 brand olive oil extract). Niacinamide is believed to provide a number of cosmetic skin care benefits (see, e.g., Bissett el al. “Niacinamide: A B Vitamin that Improves Aging Facial Skin Appearance” and Draelos “Clinical Situations Conducive to Proactive Skin Health and Anti-Aging Improvement”). […]
# [2] = 33° C., 7 days, 50% relative humidity, media 20 ng/ml, five donors (FIG. 9B)
Compound,relative fold change of epidermal gene panel (rank order) (epidermal gene panel),regulation of AQP3 (epidermal gene panel),regulation of KRT10 and FLG (epidermal gene panel),"regulation of CYP26A1, ALDH1A2, RDH10, RARRES1 and LRAT [1]","regulation of CRABP2, RARG and CEBPA ([1]; 50% relative humidity)",regulation of Cyp26B1 ([1]; 50% relative humidity),also measured
CCC(=O)OC/C=C(C)/C=C/C=C(C)/C=C/C1=C(C)CCCC1(C)C [retinol propionate],tRA>retinol>retinol propionate,up-regulated,significantly down-regulated,down-regulated with statistical significance,strongly up-regulate,strongly up-regulated,
CC1=C(/C=C/C(C)=C/C=C/C(C)=C/CO)C(C)(C)CCC1 [retinol],tRA>retinol>retinol propionate,up-regulated,significantly down-regulated,,,,
"CC1=C(/C=C/C(C)=C/C=C/C(C)=C/C(=O)O)C(C)(C)CCC1 [tRA, trans-retinoic acid]",tRA>retinol>retinol propionate,up-regulated,significantly down-regulated,down-regulated with statistical significance,strongly up-regulate,strongly up-regulated,"response of retinoid metabolism genes, tRA compared with RP ([1]; 37° C., 50% relative humidity, 48 hours to 7 days (FIGS. 6A-6C)): stronger response"
"TGFβ-1: endogenous gene stimulative compound, known regulator of dermal matrix genes; used as positive control",,,,,,,"regulation of ELN and LOXL2 (dermal gene panel; [2]): did not show statistically significant up-regulation; regulation of FN1, COL1A1 and COL3A1 (dermal gene panel; [2]): significantly up-regulated; statistically significant up-regulation of ELN and LOXL2 across a majority of donors (dermal gene panel; 37° C., 7 days, 50% relative humidity, media 20 ng/ml, five donors (FIG. 9A)): did at 37 °C; regulation of FN1, LOXL2, COL3A1, ELN and LOXL1 (dermal gene panel; 24 hrs, media application 20 ng/ml, single donor, 37° C., 50% relative humidity (FIG. 8A)): significantly regulated; number of statistically significant genes up-regulated at 37° C. versus 33° C. (dermal gene panel; 7 days, 50% relative humidity, media 20 ng/ml, nine dermal genes): increased dramatically; donor tissues with statistically significant up-regulation of at least FN1, COL1A1 and ELN (dermal gene panel; media 20 ng/ml, 11 days, 33° C., 70% relative humidity, eight donor tissues (FIG. 15)): 80%; time of most robust response of dermal genes (dermal gene panel; media application 20 ng/ml, single donor, 37° C., 50% relative humidity, 1 to 7 days (FIG. 8A)): between Day 5 and Day 7; regulation of FN1, COL1A1 and COL3A1 (dermal gene panel; media applied 20 ng/ml, single donor, time course 24 hrs to 7 days (FIG. 2)): increasingly up-regulated; response of dermal genes (dermal gene panel; media supplied (FIGS. 2, 4, 7 and 8)): strong, consistent, up-regulation response"
palmitoyl-lysine-threonine [peptide],,,,,,,regulation of TGFβ-2 and TGFβ-3 (TGFβ-2 and TGFβ-3): up-regulated
